In patent US9884063B2, “Amido-substituted azole compounds” (Bayer Pharma Aktiengesellschaft, priority 2014, dated 2018):

Columns and labels:
[1] = tested on: wildtype Wnt signaling cascade; assay: HEK293 TOP Assay (Super TopFlash luciferase reporter, Wnt-3a stimulated); type: cell-based
Method in brief: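 HEK293 cells stably carrying Super TopFlash (TOP) or FOP reporter, stimulated with recombinant human Wnt-3a (2500–5 ng/ml, two-fold steps). Both lines incubated in parallel with compound from 50 μM to 15 nM (3.16-fold) in CAFTY buffer pH 7.4 with 2 mM Ca2+ and 0.01% BSA; selectivity judged TOP vs FOP.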

TNKS2 = biological target: T1, TNKS2 (Homo sapiens, UniProt Q9H2K2); assay: Modified TNKS2 Assay 2 (auto-parsylation, [3H]-NAD+ SPA); type: biochemical; conditions: 6 nM TNKS2, 96 well
T1 sequence (Q9H2K2 1-1166): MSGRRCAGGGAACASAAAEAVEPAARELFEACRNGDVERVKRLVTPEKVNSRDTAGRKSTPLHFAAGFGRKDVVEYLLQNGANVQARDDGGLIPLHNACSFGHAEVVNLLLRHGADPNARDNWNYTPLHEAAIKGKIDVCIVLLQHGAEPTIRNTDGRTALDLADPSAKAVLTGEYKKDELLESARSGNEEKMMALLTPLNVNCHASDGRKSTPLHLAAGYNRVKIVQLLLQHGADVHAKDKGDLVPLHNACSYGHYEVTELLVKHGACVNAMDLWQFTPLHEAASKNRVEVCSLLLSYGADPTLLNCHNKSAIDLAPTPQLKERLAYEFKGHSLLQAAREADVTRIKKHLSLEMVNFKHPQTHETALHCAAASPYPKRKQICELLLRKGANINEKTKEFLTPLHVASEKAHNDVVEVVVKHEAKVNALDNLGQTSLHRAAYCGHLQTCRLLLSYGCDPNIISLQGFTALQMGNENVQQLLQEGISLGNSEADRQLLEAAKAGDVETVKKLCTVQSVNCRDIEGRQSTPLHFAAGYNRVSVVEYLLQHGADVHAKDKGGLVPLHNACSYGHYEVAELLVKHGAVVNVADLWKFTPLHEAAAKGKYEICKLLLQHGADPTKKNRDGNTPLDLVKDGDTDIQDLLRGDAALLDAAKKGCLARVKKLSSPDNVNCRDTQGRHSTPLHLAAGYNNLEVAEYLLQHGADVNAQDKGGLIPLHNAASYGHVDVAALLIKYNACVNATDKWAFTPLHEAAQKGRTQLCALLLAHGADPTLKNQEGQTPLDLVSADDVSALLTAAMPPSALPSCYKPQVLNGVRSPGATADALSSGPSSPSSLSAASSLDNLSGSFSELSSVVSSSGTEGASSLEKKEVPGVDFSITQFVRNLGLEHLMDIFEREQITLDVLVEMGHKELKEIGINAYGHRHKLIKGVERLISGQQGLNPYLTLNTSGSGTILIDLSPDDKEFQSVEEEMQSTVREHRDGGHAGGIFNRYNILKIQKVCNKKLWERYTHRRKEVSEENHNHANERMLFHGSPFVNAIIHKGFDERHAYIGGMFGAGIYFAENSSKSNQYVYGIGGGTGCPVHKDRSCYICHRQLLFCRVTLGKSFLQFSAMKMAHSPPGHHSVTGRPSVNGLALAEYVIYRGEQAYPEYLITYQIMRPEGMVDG

[2] = Homo sapiens, HEK293, 16 h, HEK293 TOP reporter cell line, Wnt-3a at EC50, 16 hours incubation, compound dilution series 50 μM to 15 nM

Row | IC50 [1, 2] [nM] | IC50 (TNKS2) [nM] | IC50 ([1]; Homo sapiens, HEK293, 16 h, HEK293 TOP reporter cells, Wnt3a at EC50, 16 hours, luciferase) [nM] | IC50 ([1]; HEK293 TOP reporter cell line, Wnt-3a at EC50, 16 hours incubation, compound dilution series 50 μM to 15 nM) [nM] | SMILES
1 | 1550 | 150 |  |  | CC(CN1CCOCC1)NC(=O)c1[nH]cnc1C(=O)Nc1ccc(NC(=O)c2ccc(F)cc2)cc1 (stereo not drawn) [Example 294, N^4-{4-[(4-fluorobenzoyl)amino]phenyl}-N^5-[1-(morpholin-4-yl)propan-2-yl]-1H-imidazole-4,5-dicarboxamide]
2 | 660 | 160 |  |  | CN(C)CCNC(=O)c1nc[nH]c1C(=O)Nc1ccc(NC(=O)c2ccccc2Cl)c(F)c1 [Example 81, N^5-{4-[(2-chlorobenzoyl)amino]-3-fluorophenyl}-N^4-[2-(dimethylamino)ethyl]-1H-imidazole-4,5-dicarboxamide]
3 | 50000 | > 10000 |  |  | CNC(=O)c1nc[nH]c1C(=O)Nc1ccc(NC(=O)c2ccon2)cc1 [Example 376, N^4-methyl-N^5-{4-[(1,2-oxazol-3-ylcarbonyl)amino]phenyl}-1H-imidazole-4,5-dicarboxamide]
4 | 140 | 50 |  |  | O=C(Nc1ccc(NC(=O)c2[nH]cnc2C(=O)NC2CC2)cc1)c1cc(F)c(F)cc1Cl [Example 51, N^5-{4-[(2-chloro-4,5-difluorobenzoyl)amino]phenyl}-N^4-cyclopropyl-1H-imidazole-4,5-dicarboxamide]
5 | 720 | 2200 |  |  | CNC(=O)c1nc[nH]c1C(=O)Nc1ccc(NC(=O)c2cc(C#N)ccc2F)cc1 [Example 349, N^5-{4-[(5-cyano-2-fluorobenzoyl)amino]phenyl}-N^4-methyl-1H-imidazole-4,5-dicarboxamide]
6 | 710 | 110 |  |  | NCCNC(=O)c1[nH]cnc1C(=O)Nc1ccc(NC(=O)c2ccc(F)cc2Cl)cc1 [Example 290, N^5-(2-aminoethyl)-N^4-{4-[(2-chloro-4-fluorobenzoyl)amino]phenyl}-1H-imidazole-4,5-dicarboxamide]
7 | 6150 | > 10000 | 6150 |  | CNC(=O)c1nc[nH]c1C(=O)Nc1ccc(NC(=O)c2c(Cl)cccc2C(F)(F)F)cc1 [Example 36, N^5-(4-{[2-chloro-6-(trifluoromethyl)benzoyl]amino}phenyl)-N^4-methyl-1H-imidazole-4,5-dicarboxamide]
8 | 710 | 100 |  |  | O=C(Nc1ccc(NC(=O)c2[nH]cnc2C(=O)NCCc2cccnc2)cc1)c1ccc(F)cc1Cl [Example 405, N^5-{4-[(2-chloro-4-fluorobenzoyl)amino]phenyl}-N^4-[2-(pyridin-3-yl)ethyl]-1H-imidazole-4,5-dicarboxamide]
9 |  | 3 |  | 40 | CC(CN1CCOCC1)NC(=O)c1[nH]cnc1C(=O)Nc1ccc(NC(=O)c2ccc(F)cc2Cl)cc1 (single isomer, unassigned; enantiomer 2) [Example 270, N^4-{4-[(2-chloro-4-fluorobenzoyl)amino]phenyl}-N^5-[1-(morpholin-4-yl)propan-2-yl]-1H-imidazole-4,5-dicarboxamide (enantiomer 2)]
10 | 2100 | 6200 |  |  | CCNC(=O)c1nc[nH]c1C(=O)Nc1ccc(NC(=O)c2cccc(OC)c2Cl)cc1 [Example 260, N^5-{4-[(2-chloro-3-methoxybenzoyl)amino]phenyl}-N^4-ethyl-1H-imidazole-4,5-dicarboxamide]
11 | 120 | 570 |  |  | CNC(=O)c1nc[nH]c1C(=O)Nc1ccc(NC(=O)c2ccc(F)cc2Br)cc1 [Example 56, N^5-{4-[(2-bromo-4-fluorobenzoyl)amino]phenyl}-N^4-methyl-1H-imidazole-4,5-dicarboxamide]
12 | 340 | 110 |  |  | COC(=O)c1nc[nH]c1C(=O)Nc1ccc(NC(=O)c2ccc(F)cc2Cl)c(F)c1 [Example 71, methyl 5-({4-[(2-chloro-4-fluorobenzoyl)amino]-3-fluorophenyl}carbamoyl)-1H-imidazole-4-carboxylate]
13 | 50000 | > 10000 |  |  | CNC(=O)c1nc[nH]c1C(=O)Nc1ccc(NC(=O)c2cccc(Cl)n2)cc1 [Example 353, N^5-(4-{[(6-chloropyridin-2-yl)carbonyl]amino}phenyl)-N^4-methyl-1H-imidazole-4,5-dicarboxamide]
